Measurements: publication PMC3025922 (BMC Biology, 2010)
Read-outs that look alike come from different tables or passages of the source.

System: nuclear p27 in LNCaP-S14 cells
Type: cell-based, human
Conditions: for Z score (aver) / Clasf: primary screening; for Z score (aver): nuclear p27 in LNCaP-S14 cells; for Clasf: S = strong, M = medium, W = weak by Z score

Compound | Z score (aver) | Clasf | hit in primary screen (increased percentage of p27 positive cells) (LNCaP-S14, ~5 to 35 μM, 18 h) | hit in primary screen (increased percentage of p27 positive cells)
CCCCC(CC)CNC(=N)NC(=N)NCCCCCCNC(=N)NC(=N)NCC(CC)CCCC.Cl (stereo not shown) [502E04] | 9.20 | S (strong (Z score > 5)) | – | –
O=C(C(c1ccccc1)c1ccccc1)N(Cc1ccc(Cl)cc1)Cc1ccc2cc[nH]c2c1 [522N04] | 2.29 | W (weak (Z score 2-3) | – | –
COc1ccc(CC(N)C(=O)NC2C(CO)OC(n3cnc4c(N(C)C)ncnc43)C2O)cc1.Cl (stereo not shown) [1569O22] | 7.86 | S (strong (Z score > 5)) | – | –
CCC(=O)N(Cc1cccc(Cl)c1)c1ccc2[nH]c(C(C)(C)C)cc2c1 [522J18] | 6.59 | S (strong (Z score > 5)) | – | –
C=CCNC1=C2C[C@@H](C)C[C@H](OC)[C@H](O)[C@@H](C)/C=C(\C)[C@H](OC(N)=O)[C@@H](OC)/C=C\C=C(/C)C(=O)NC(=CC1=O)C2=O [17-N-allylamino-17-demethoxygeldanamycin, reference compound] | – | – | identified | –
CCCCCCCCCCCCCCCC[N+](C)(C)CCN(Cc1ccc(OC)cc1)c1ncccn1 [1570J12] | 8.18 | S (strong (Z score > 5)) | – | –
Cc1ccc(-c2cc(C(F)(F)F)nn2-c2ccc(S(N)(=O)=O)cc2)cc1 [502M15] | 2.59 | W (weak (Z score 2-3) | – | –
Cc1cc(C(=O)Sc2cccc(Br)c2)nn1C(C)(C)C [1520N02] | 5.16 | S (strong (Z score > 5)) | – | –
CCOC(=O)c1cc(C#N)c(Sc2ccc(C)cc2)nc1C(F)(F)F [1520B07] | 5.43 | S (strong (Z score > 5)) | – | –
CCCNC(=O)Nc1nc(Nc2ccc(Cl)cc2)n[nH]1 [1520J18] | 3.47 | M (medium (Z score 3-5)) | – | –
O=[N+]([O-])C(=C(Cl)Sc1ccccc1)C(Cl)=C(Cl)Cl [1159C10] | 2.72 | W (weak (Z score 2-3) | – | –
Cc1cc(C2CCCCC2)n(O)c(=O)c1.NCCO [502D07] | 4.86 | M (medium (Z score 3-5)) | – | –
O=C1c2ccccc2C(=O)N1Oc1ccc([N+](=O)[O-])c([N+](=O)[O-])c1 [669F07] | 3.84 | M (medium (Z score 3-5)) | – | –
Cc1ccc(C)c2c1-c1ccccc1S(=O)(=O)N2S(=O)(=O)c1ccccc1 [1160M11] | 2.11 | W (weak (Z score 2-3) | – | –
CC(C)(C)c1cc2cc(NS(=O)(=O)c3ccc(Cl)cc3)ccc2[nH]1 [521I19] | 9.14 | S (strong (Z score > 5)) | – | –
N#Cc1cc2c(nc1SCC(=O)Nc1ccccc1F)CCCCC2 [1158J04] | 2.92 | W (weak (Z score 2-3) | – | –
N#CC1(C#N)C(c2ccccc2I)C(C(=O)C23CC4CC(CC(C4)C2)C3)N2c3ccccc3C=CC21 (stereo not shown) [669O10] | 6.23 | S (strong (Z score > 5)) | – | –
COc1ccccc1NC(=O)N(Cc1cccc(Cl)c1)c1ccc2[nH]c(C(C)(C)C)cc2c1 [522L04] | 4.02 | M (medium (Z score 3-5)) | – | –
S=C(NCc1ccccc1)Nc1ccc(Br)cc1 [541M20] | 4.62 | M (medium (Z score 3-5)) | – | –
COC[C@H]1OC(=O)c2coc3c2[C@@]1(C)C1=C(C3=O)[C@@H]2CCC(=O)[C@@]2(C)C[C@H]1OC(C)=O [Wortmannin, reference compound] | – | – | scored positive | –
CC(C)(C)c1ccc(S(=O)(=O)Nc2ccc3[nH]c(C(C)(C)C)cc3c2)cc1 [521I15] | 7.27 | S (strong (Z score > 5)) | – | –
Cc1onc(-c2c(Cl)cccc2Cl)c1-c1csc(CCn2c(=O)oc3ccccc32)n1 [1520L12] | 2.13 | W (weak (Z score 2-3) | – | –
O=C(Nc1ccc([N+](=O)[O-])cc1Cl)c1cc(Cl)ccc1O [1568G21] | 3.77 | M (medium (Z score 3-5)) | – | –
CC1=CC(=O)c2ccccc2C1=O [1569K20] | 6.94 | S (strong (Z score > 5)) | – | –
Sc1nnc2c3ccccc3n(CCc3ccccc3)c2n1 [1160H09] | 2.51 | W (weak (Z score 2-3) | – | –
O=C(CCCN1CCC2(CC1)C(=O)NCN2c1ccccc1)c1ccc(F)cc1 [1568J18] | 4.37 | M (medium (Z score 3-5)) | – | –

Compound | Z score (aver) | Clasf | hit in primary screen (increased percentage of p27 positive cells) (LNCaP-S14, ~5 to 35 μM, 18 h) | hit in primary screen (increased percentage of p27 positive cells)
CC1=NC(=Cc2sccc2C)C(=O)O1 [1520B10] | 2.27 | W (weak (Z score 2-3) | – | –
C[n+]1cc2c3c(ccc2c2ccc4cc5c(cc4c21)OCO5)OCO3.O=[N+]([O-])[O-] [501I17] | 4.78 | M (medium (Z score 3-5)) | – | –
Cc1cc2c(C(C)C)c(O)c(O)c(C=O)c2c(O)c1-c1c(C)cc2c(C(C)C)c(O)c(O)c(C=O)c2c1O [1570G15] | 3.54 | M (medium (Z score 3-5)) | – | –
COc1ccccc1CNC1CC(C)(C)n2cccc21 (stereo not shown) [519F12] | 2.47 | W (weak (Z score 2-3) | – | –
CCN(CC)CCCC(C)Nc1c2ccc(Cl)cc2nc2ccc(OC)cc12 (stereo not shown) [1568P18] | 6.13 | S (strong (Z score > 5)) | – | –
CC#CC1(O)CCC2C3CCC4=CC(=O)CCC4=C3C(c3ccc(N(C)C)cc3)CC21C (stereo not shown) [1568L20] | 3.22 | M (medium (Z score 3-5)) | – | –
COc1cc(C#N)ccc1OC(=O)Cc1coc2ccc3ccccc3c12 [1715D21] | 2.52 | W (weak (Z score 2-3) | – | –
CC(C)CC1C(=O)N2CCCC2C2(O)OC(NC(=O)C3C=C4c5cccc6[nH]c(Br)c(c56)CC4N(C)C3)(C(C)C)C(=O)N12.CS(=O)(=O)O (stereo not shown) [502C19] | 2.62 | W (weak (Z score 2-3) | – | –
NC(CO)(CO)CO.O=C(c1ccccc1)c1ccc2n1CCC2C(=O)O (stereo not shown) [502J18] | 2.67 | W (weak (Z score 2-3) | – | –
CCCCCCSc1nnc(N)s1 [541O08] | 8.05 | S (strong (Z score > 5)) | – | –
CO[C@@]12[C@H](COC(N)=O)C3=C(C(=O)C(C)=C(N)C3=O)N1C[C@@H]1N[C@@H]12 [mitomycin C, reference compound] | – | – | – | identified
CC(C)COCC(CN(Cc1ccccc1)c1ccccc1)N1CCCC1.Cl (stereo not shown) [500F12] | 5.49 | S (strong (Z score > 5)) | – | –
COc1cc(OC)c(CN2CCC(NC(=O)c3ccc(-n4nc(C(C)(C)C)cc4C(C)(C)C)cc3)C2)c(OC)c1 (stereo not shown) [567D12] | 8.89 | S (strong (Z score > 5)) | – | –
CCNC(=O)C=C1NC(C)(C)Cc2c1ccc1ccccc21 [1160G14] | 2.31 | W (weak (Z score 2-3) | – | –
COCC1OC(=O)c2coc3c2C1(C)C1=C(C3=O)C2CCC(=O)C2(C)CC1OC(C)=O (stereo not shown) [1362N13] | 6.65 | S (strong (Z score > 5)) | – | –
CCCCc1ccc2nc(NC(=O)C3=NN(C)C(=O)CC3)sc2c1 [1715B12] | 2.67 | W (weak (Z score 2-3) | – | –
O=C(OCn1ncc(Cl)c(Cl)c1=O)c1ccc(C(F)(F)F)cc1 [567M13] | – | S (strong (Z score > 5)) | – | –
COc1cc([C@@H]2c3cc4c(cc3[C@@H](O[C@@H]3O[C@@H]5CO[C@@H](C)O[C@H]5[C@H](O)[C@H]3O)[C@H]3COC(=O)[C@H]23)OCO4)cc(OC)c1O [etoposide, reference compound] | – | – | identified | –
COc1ccc(Cc2nccc3cc(OC)c(OC)cc23)cc1OC.Cl [1569F08] | 2.60 | W (weak (Z score 2-3) | – | –
CCOC(=O)C1=C(C)N=c2sc(=Cc3ccc(N4CCOCC4)o3)c(=O)n2C1c1ccc2c(c1)OCO2 (stereo not shown) [1158O07] | 8.87 | S (strong (Z score > 5)) | – | –
CN(C)c1ccc(O)c2c1CC1CC3C(N(C)C)C(O)=C(C(N)=O)C(=O)C3(O)C(O)=C1C2=O.Cl (stereo not shown) [501G12] | 5.15 | S (strong (Z score > 5)) | – | –
CCC1(O)C(=O)OCc2c1cc1n(c2=O)Cc2cc3ccccc3nc2-1 (stereo not shown) [1568H21] | 4.82 | M (medium (Z score 3-5)) | – | –
CCC1(C2OC(C3OC(O)(CO)C(C)CC3C)CC2C)CCC(C2(C)CCC3(CC(O)C(C)C(C(C)C(OC)C(C)C(=O)[O-])O3)O2)O1.[Na+] (stereo not shown) [1570E18] | 9.26 | S (strong (Z score > 5)) | – | –
CCCN1CCC(N(C(=O)c2ccc(NC(=O)C(c3ccccc3)c3ccccc3)cc2)C2CC2)CC1 [521L12] | 4.02 | M (medium (Z score 3-5)) | – | –
CCCC(C(=O)OCCN(CC)CC)(c1ccccc1)c1ccccc1.Cl [1570K18] | 3.31 | M (medium (Z score 3-5)) | – | –
